In one assay the test system is Plasmodium falciparum. The assay is described as follows: Antiplasmodial activity against asexual blood stage Plasmodium falciparum 3D7A MR4 infected in human RBCs assessed as decrease in [3H]-hypoxanthine incorporation pretreated for 24 hrs in presence of hypoxanthine followed by [3H]-hypoxanthine addition after 24 hrs by microbeta scintillation counter analysis. The class given is functional, organism-based.

In assay [1] the target is T1, Glycylpeptide N-tetradecanoyltransferase (Plasmodium falciparum (isolate 3D7)) (UniProt Q8ILW6).
T1 sequence (whole entry): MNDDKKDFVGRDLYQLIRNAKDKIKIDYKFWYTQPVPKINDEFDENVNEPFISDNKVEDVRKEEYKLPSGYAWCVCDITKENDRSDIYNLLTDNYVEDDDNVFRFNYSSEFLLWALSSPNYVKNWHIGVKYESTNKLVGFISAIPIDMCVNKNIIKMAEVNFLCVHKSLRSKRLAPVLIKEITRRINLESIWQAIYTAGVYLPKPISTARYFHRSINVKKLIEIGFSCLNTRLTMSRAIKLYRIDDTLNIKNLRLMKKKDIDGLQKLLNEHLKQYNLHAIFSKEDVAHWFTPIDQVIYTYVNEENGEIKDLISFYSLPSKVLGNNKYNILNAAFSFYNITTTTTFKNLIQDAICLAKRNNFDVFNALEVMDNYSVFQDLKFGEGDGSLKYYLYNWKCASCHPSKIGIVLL
Nature of the assay: Competitive inhibition of Plasmodium falciparum NMT (27 to 410 residues) expressed in Escherichia coli Rosetta (DE3) using H-GLYVSRLFNRLFQKK-NH2 as substrate.

The target of assay [2] is T1, Glycylpeptide N-tetradecanoyltransferase (Plasmodium falciparum (isolate 3D7)). The assay is described as follows: Binding affinity to Plasmodium falciparum NMT (27 to 410 residues) expressed in Escherichia coli Rosetta (DE3) assessed as change in melting temperature at 100 uM in presence of 100 uM myristoyl-CoA by Sypro orange dye based differential scanning fluorimetry (reference value: 0 degreeC).

Assay [3] shares this target. The assay is described as follows: Binding affinity to Plasmodium falciparum NMT (27 to 410 residues) expressed in Escherichia coli Rosetta (DE3) assessed as change in melting temperature at 100 uM in absence of 100 uM myristoyl-CoA by Sypro orange dye based differential scanning fluorimetry (reference value: 0 degreeC).

Among the data in ChEMBL document CHEMBL4376863, “Identification of Selective Inhibitors of Plasmodium N-Myristoyltransferase by High-Throughput Screening” (J Med Chem, 2020) are Activity, inhibition and ΔTm values, retold here.

Calls of active or inactive are those of the source. The calls are words filed in the database; no cut-off is given here.

Consider `Cc1ccc(-n2nc(C(=O)N3CCCN(C)CC3)c3ccccc32)cc1`, for which, in the assay on Plasmodium falciparum, the result was inactive. For the same molecule, the inhibition result in assay [1] is “Active”. Further, the results for the thermal shift (ΔTm) in assay [2] and in assay [3] were 6.17 °C and -0.02 °C, respectively.

For `Clc1cccc(O[C@H]2C[C@H](NCc3cnc4[nH]ccc4c3)C2)c1Cl`, in the assay on Plasmodium falciparum, the outcome was inactive. Moreover, the inhibition entry in assay [1] was “Active”. The ΔTm is 6.57 °C in assay [2] and -2.91 °C in assay [3].

`O=C(c1cccc(NCc2cc(-c3ccc(Cl)cc3)c[nH]c2=O)c1)N1CCOCC1`: in the assay on Plasmodium falciparum, the result was inactive. Further, in assay [1], the inhibition entry is “Active”. For the same molecule, the values for the ΔTm in assay [2] and in assay [3] were 2.16 °C and -0.3 °C, respectively.

As to `CCN(c1ccccc1)S(=O)(=O)c1ccc(Cl)c(C(=O)Nc2ccccc2N2CCCC2=O)c1`, the outcome in the assay on Plasmodium falciparum was inactive. Also, the shift in melting temperature (ΔTm) in assay [2] is 7.33 °C; in assay [3] it was 1.42 °C.

In the case of `O=C(c1ccc2c(c1)N(Cc1ccccc1)C(=O)c1ccccc1[S+]2[O-])N1CCCCC1` (stereo not drawn), the outcome in the assay with Plasmodium falciparum was inactive. The ΔTm came out at 8.05 °C in assay [2] and 1.84 °C in assay [3].
